In PubChem BioAssay (NCI):
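Interpolation was linear, between the two tested concentrations surrounding the appropriate level; five concentrations were tested over 48 hours in 96-well plates. At the GI50, growth is halved. TGI: concentration producing complete growth inhibition.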

Legend:
Experiment in all cases: NCI-60 cell line screen, 48 h; in the data active = GI50 below about 0.43 µM; inactive = the rest
M14 melanoma = tested on: M14 melanoma
RPMI-8226 leukemia = tested on: RPMI-8226 leukemia
786-0 renal = tested on: 786-0 renal
OVCAR-5 ovarian = tested on: OVCAR-5 ovarian
ACHN renal = tested on: ACHN renal
SK-OV-3 ovarian = tested on: SK-OV-3 ovarian
OVCAR-4 ovarian = tested on: OVCAR-4 ovarian
SW-620 colon = tested on: SW-620 colon
RXF 393 renal = tested on: RXF 393 renal
NCI-H522 lung = tested on: NCI-H522 lung
UACC-257 melanoma = tested on: UACC-257 melanoma
SNB-19 CNS = tested on: SNB-19 CNS
U251 CNS = tested on: U251 CNS
PC-3 prostate = tested on: PC-3 prostate
EKVX NSCLC = tested on: EKVX NSCLC
IGROV1 ovarian = tested on: IGROV1 ovarian
MDA-MB-435 = tested on: MDA-MB-435
T-47D breast = tested on: T-47D breast
SF-539 CNS = tested on: SF-539 CNS
A549 NSCLC = tested on: A549 NSCLC
OVCAR-3 ovarian = tested on: OVCAR-3 ovarian
NCI-H460 lung = tested on: NCI-H460 lung
SK-MEL-2 melanoma = tested on: SK-MEL-2 melanoma
SK-MEL-28 melanoma = tested on: SK-MEL-28 melanoma
HT29 colon = tested on: HT29 colon
MALME-3M melanoma = tested on: MALME-3M melanoma
UACC-62 melanoma = tested on: UACC-62 melanoma
A498 renal = tested on: A498 renal
TK-10 renal = tested on: TK-10 renal
COLO 205 colon = tested on: COLO 205 colon
SF-268 CNS = tested on: SF-268 CNS
HOP-92 NSCLC = tested on: HOP-92 NSCLC
CAKI-1 renal = tested on: CAKI-1 renal
MCF7 breast = tested on: MCF7 breast
NCI-H226 lung = tested on: NCI-H226 lung
SK-MEL-5 melanoma = tested on: SK-MEL-5 melanoma
BT-549 breast = tested on: BT-549 breast
HCT-116 colon = tested on: HCT-116 colon
SNB-75 CNS = tested on: SNB-75 CNS
SN12C renal = tested on: SN12C renal
MDA-MB-231 breast = tested on: MDA-MB-231 breast
UO-31 renal = tested on: UO-31 renal
CCRF-CEM leukemia = tested on: CCRF-CEM leukemia
HCC-2998 colon = tested on: HCC-2998 colon
NCI/ADR-RES ovarian = tested on: NCI/ADR-RES ovarian
LOX IMVI melanoma = tested on: LOX IMVI melanoma
HS 578T breast = tested on: HS 578T breast
SF-295 CNS = tested on: SF-295 CNS
HCT-15 colon = tested on: HCT-15 colon
NCI-H23 lung = tested on: NCI-H23 lung
DU-145 prostate = tested on: DU-145 prostate
KM12 colon = tested on: KM12 colon
HOP-62 NSCLC = tested on: HOP-62 NSCLC
OVCAR-8 ovarian = tested on: OVCAR-8 ovarian

CNS(=O)(=O)OCC1OC(n2cnc3c(N)ncnc32)C(O)C1O (stereo not drawn)
inactive: GI50 (M14 melanoma) > 100 µM | GI50 (RPMI-8226 leukemia) > 100 µM | GI50 (786-0 renal) > 100 µM | GI50 (OVCAR-5 ovarian) > 100 µM | GI50 (ACHN renal) > 100 µM | GI50 (SK-OV-3 ovarian) > 100 µM | GI50 (OVCAR-4 ovarian) > 100 µM | GI50 (SW-620 colon) > 100 µM | GI50 (RXF 393 renal) > 100 µM | GI50 (NCI-H522 lung) > 100 µM | GI50 (UACC-257 melanoma) > 100 µM | GI50 (SNB-19 CNS) > 100 µM | GI50 (U251 CNS) > 100 µM | GI50 (PC-3 prostate) > 100 µM | GI50 (EKVX NSCLC) > 100 µM | GI50 (IGROV1 ovarian) > 100 µM | GI50 (MDA-MB-435) > 100 µM | GI50 (T-47D breast) > 100 µM | GI50 (SF-539 CNS) > 100 µM | GI50 (A549 NSCLC) > 100 µM | GI50 (OVCAR-3 ovarian) > 100 µM | GI50 (NCI-H460 lung) > 100 µM | GI50 (SK-MEL-2 melanoma) > 100 µM | GI50 (SK-MEL-28 melanoma) > 100 µM | GI50 (HT29 colon) > 100 µM | GI50 (MALME-3M melanoma) > 100 µM | GI50 (UACC-62 melanoma) > 100 µM | GI50 (A498 renal) > 100 µM | GI50 (TK-10 renal) > 100 µM | GI50 (COLO 205 colon) > 100 µM | GI50 (SF-268 CNS) > 100 µM | GI50 (HOP-92 NSCLC) > 100 µM | GI50 (CAKI-1 renal) > 100 µM | GI50 (MCF7 breast) > 100 µM | GI50 (NCI-H226 lung) > 100 µM | GI50 (SK-MEL-5 melanoma) > 100 µM | GI50 (BT-549 breast) > 100 µM | GI50 (HCT-116 colon) > 100 µM | GI50 (SNB-75 CNS) > 100 µM | GI50 (SN12C renal) > 100 µM | GI50 (MDA-MB-231 breast) > 100 µM | GI50 (UO-31 renal) > 100 µM | GI50 (CCRF-CEM leukemia) > 100 µM | GI50 (HCC-2998 colon) > 100 µM | GI50 (NCI/ADR-RES ovarian) > 100 µM | GI50 (LOX IMVI melanoma) > 100 µM | GI50 (HS 578T breast) > 100 µM | GI50 (SF-295 CNS) > 100 µM | GI50 (HCT-15 colon) > 100 µM | GI50 (NCI-H23 lung) > 100 µM | GI50 (DU-145 prostate) > 100 µM | GI50 (KM12 colon) > 100 µM | GI50 (HOP-62 NSCLC) > 100 µM | GI50 (OVCAR-8 ovarian) > 100 µM
> 100 µM: TGI (M14 melanoma) | TGI (RPMI-8226 leukemia) | TGI (786-0 renal) | TGI (OVCAR-5 ovarian) | TGI (ACHN renal) | TGI (SK-OV-3 ovarian) | TGI (OVCAR-4 ovarian) | TGI (SW-620 colon) | TGI (RXF 393 renal) | TGI (NCI-H522 lung) | TGI (UACC-257 melanoma) | TGI (SNB-19 CNS) | TGI (U251 CNS) | TGI (PC-3 prostate) | TGI (EKVX NSCLC) | TGI (IGROV1 ovarian) | TGI (MDA-MB-435) | TGI (T-47D breast) | TGI (SF-539 CNS) | TGI (A549 NSCLC) | TGI (OVCAR-3 ovarian) | TGI (NCI-H460 lung) | TGI (SK-MEL-2 melanoma) | TGI (SK-MEL-28 melanoma) | TGI (HT29 colon) | TGI (MALME-3M melanoma) | TGI (UACC-62 melanoma) | TGI (A498 renal) | TGI (TK-10 renal) | TGI (COLO 205 colon) | TGI (SF-268 CNS) | TGI (HOP-92 NSCLC) | TGI (CAKI-1 renal) | TGI (MCF7 breast) | TGI (NCI-H226 lung) | TGI (SK-MEL-5 melanoma) | TGI (BT-549 breast) | TGI (HCT-116 colon) | TGI (SNB-75 CNS) | TGI (SN12C renal) | TGI (MDA-MB-231 breast) | TGI (UO-31 renal) | TGI (CCRF-CEM leukemia) | TGI (HCC-2998 colon) | TGI (NCI/ADR-RES ovarian) | TGI (LOX IMVI melanoma) | TGI (HS 578T breast) | TGI (SF-295 CNS) | TGI (HCT-15 colon) | TGI (NCI-H23 lung) | TGI (DU-145 prostate) | TGI (KM12 colon) | TGI (HOP-62 NSCLC) | TGI (OVCAR-8 ovarian)
